Test results taken from ChEMBL document CHEMBL4382249, “1-Arylsulfonyl indoline-benzamides as a new antitubulin agents, with inhibition of histone deacetylase” (Eur J Med Chem, 2019).
Active and inactive are the calls of the source. No cut-off for these calls is given here.

Columns and labels:
Histone deacetylase 8 = molecular target: T1, Histone deacetylase 8 (Homo sapiens, UniProt Q9BY41)
T1 sequence (Q9BY41 whole entry): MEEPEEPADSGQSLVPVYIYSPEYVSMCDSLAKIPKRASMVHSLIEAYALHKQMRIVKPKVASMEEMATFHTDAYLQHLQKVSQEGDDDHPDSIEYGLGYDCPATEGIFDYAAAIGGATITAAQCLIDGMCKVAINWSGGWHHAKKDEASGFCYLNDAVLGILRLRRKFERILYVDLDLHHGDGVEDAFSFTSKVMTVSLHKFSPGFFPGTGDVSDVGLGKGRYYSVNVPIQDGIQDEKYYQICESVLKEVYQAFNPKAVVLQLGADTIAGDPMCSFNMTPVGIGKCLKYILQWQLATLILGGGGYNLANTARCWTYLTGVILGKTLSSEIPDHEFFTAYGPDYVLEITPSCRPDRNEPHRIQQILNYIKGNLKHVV

BJAB [1] = experiment: Growth inhibition of human BJAB cells assessed as cell viability at 10 nM after 48 hrs by MTT assay (reference value: 100%)
Histone deacetylase 1 = Histone deacetylase 1 (Homo sapiens, UniProt Q13547); experiment: Inhibition of human HDAC1 using RHKKAc as substrate by fluorescence assay
[2] = molecular target: T2, Polyamine deacetylase HDAC10 (Homo sapiens, UniProt Q969S8); experiment: Inhibition of human HDAC10 using RHKKAc as substrate by fluorescence assay; conditions: read-out: IC50
T2 sequence (Q969S8 whole entry): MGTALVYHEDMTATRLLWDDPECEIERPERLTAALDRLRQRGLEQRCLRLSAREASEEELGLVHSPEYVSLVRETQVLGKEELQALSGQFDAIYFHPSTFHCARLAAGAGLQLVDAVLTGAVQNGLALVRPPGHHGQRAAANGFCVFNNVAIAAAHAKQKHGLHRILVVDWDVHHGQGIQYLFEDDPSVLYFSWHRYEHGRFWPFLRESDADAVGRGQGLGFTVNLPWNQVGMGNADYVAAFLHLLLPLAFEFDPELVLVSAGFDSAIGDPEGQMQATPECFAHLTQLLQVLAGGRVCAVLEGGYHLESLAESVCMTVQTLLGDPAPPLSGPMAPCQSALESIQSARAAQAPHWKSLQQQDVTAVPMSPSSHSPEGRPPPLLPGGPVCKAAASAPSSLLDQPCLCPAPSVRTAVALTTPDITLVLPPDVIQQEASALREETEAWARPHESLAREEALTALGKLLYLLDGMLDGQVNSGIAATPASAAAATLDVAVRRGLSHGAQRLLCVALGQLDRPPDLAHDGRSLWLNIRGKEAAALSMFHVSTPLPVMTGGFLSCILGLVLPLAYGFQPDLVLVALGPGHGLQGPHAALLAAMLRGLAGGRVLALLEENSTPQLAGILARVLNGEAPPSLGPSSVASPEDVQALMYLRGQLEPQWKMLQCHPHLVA

BJAB [3] = experiment: Growth inhibition of human BJAB cells assessed as cell viability at 20 nM after 48 hrs by MTT assay (reference value: 100%)
KB = experiment: Growth inhibition of human KB cells after 48 hrs by SRB assay; type: functional, cell-based
[4] = molecular target: T3, Protein deacetylase HDAC6 (Homo sapiens) (UniProt Q9UBN7); experiment: Inhibition of human HDAC6 in human A549 cells assessed as increase in acetylated alpha-tubulin level at 0.6 to […] after 6 hrs by Western blot analysis; type: cell-based
T3 sequence (whole entry): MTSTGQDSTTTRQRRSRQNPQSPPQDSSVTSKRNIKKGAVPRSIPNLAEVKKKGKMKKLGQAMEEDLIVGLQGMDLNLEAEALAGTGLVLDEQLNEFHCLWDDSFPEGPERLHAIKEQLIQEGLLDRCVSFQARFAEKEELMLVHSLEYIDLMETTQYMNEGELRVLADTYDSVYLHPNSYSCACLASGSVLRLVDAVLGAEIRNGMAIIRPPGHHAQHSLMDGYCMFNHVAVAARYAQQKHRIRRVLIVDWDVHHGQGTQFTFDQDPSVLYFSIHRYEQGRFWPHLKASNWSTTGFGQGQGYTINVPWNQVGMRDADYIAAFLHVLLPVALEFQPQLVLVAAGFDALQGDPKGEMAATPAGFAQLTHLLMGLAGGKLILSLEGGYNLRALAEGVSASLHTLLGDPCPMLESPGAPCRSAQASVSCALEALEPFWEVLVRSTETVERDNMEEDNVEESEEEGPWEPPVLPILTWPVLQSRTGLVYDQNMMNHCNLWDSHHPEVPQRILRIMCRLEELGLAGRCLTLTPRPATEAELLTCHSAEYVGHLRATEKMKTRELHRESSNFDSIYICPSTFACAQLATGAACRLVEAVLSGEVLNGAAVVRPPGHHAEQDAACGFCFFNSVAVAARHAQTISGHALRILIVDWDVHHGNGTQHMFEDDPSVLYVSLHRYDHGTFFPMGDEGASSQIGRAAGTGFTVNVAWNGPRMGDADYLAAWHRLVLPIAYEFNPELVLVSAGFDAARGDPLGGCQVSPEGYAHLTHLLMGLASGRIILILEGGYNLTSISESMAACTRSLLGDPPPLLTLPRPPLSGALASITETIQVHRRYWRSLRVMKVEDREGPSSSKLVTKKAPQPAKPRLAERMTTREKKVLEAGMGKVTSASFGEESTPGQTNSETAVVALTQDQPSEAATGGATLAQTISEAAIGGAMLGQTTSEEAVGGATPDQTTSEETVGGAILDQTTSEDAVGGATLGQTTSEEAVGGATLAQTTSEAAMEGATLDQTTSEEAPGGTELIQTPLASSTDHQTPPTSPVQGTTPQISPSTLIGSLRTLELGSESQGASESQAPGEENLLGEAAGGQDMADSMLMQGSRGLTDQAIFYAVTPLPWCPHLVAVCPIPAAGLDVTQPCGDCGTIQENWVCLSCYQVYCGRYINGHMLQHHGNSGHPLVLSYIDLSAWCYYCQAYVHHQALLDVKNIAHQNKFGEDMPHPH

Tubulin = Tubulin (Bos taurus, UniProt Q6B856+Q862L2+Q862F3)
BJAB [5] = experiment: Growth inhibition of human BJAB cells after 48 hrs by MTT assay
BJAB [6] = experiment: Growth inhibition of human BJAB cells assessed as cell viability at 40 nM after 48 hrs by MTT assay (reference value: 100%)
BJAB [7] = experiment: Growth inhibition of human BJAB cells assessed as cell viability at 80 nM after 48 hrs by MTT assay (reference value: 100%)
A549 = experiment: Antitumor activity against human A549 cells xenografted in Balb/c nude mouse assessed as tumor growth inhibition at 50 mg/kg, ip daily measured up to 18 days relative to control; type: functional; conditions: 432 h, read-out: TGI

Chain of Histone deacetylase 1 (Q13547 whole entry): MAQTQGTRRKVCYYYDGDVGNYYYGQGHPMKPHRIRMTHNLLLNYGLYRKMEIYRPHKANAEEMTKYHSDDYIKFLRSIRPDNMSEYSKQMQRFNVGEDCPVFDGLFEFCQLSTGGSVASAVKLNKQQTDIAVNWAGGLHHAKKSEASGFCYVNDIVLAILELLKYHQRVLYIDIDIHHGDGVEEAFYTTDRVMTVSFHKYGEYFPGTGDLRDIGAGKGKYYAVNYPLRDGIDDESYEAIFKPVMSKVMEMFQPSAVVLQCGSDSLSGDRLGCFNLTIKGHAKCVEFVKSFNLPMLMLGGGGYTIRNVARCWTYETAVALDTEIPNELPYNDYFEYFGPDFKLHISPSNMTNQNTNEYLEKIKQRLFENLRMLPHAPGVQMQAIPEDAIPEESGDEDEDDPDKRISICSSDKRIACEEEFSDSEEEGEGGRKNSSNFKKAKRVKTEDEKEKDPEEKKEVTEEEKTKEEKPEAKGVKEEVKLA

- IC50 (Histone deacetylase 8): Not Active
- IC50 (Histone deacetylase 1): 221 nM
- IC50 [2]: 10 µM
- IC50 (KB): 49 nM
- inhibition [4]: Active
- IC50 (Tubulin): 1.1 µM
SMILES: COc1ccc(S(=O)(=O)N2CCc3cccc(NCc4ccc(C(=O)Nc5ccccc5N)cc4)c32)cc1
- viability at 0.01 µM (BJAB [1]): 69%
- viability at 0.02 µM (BJAB [3]): 70%
- IC50 (BJAB [5]): 40 nM
- viability at 0.04 µM (BJAB [6]): 50%
- viability at 0.08 µM (BJAB [7]): 22%
- inhibition in vivo at 50 mg/kg (A549): 62.9%
